Source: patent US4038404A, “1,2,4-Triazole antimycotic compositions and use thereof” (Bayer Aktiengesellschaft, priority 1972, dated 1977)
In brackets after ≈: the same amount, converted by molar mass. Like-named read-outs stand apart in the source and are kept apart here.

Assays:
[1] = test system: Trichophyton mentagrophytes; test: Series dilution test in vitro, Trichophyton mentagrophytes; assay type: cell-based; settings: for MIC: Trichophyton mentagrophytes, read-out: Minimum inhibitory concentration (MIC)
Description: (§1) 1. DETERMINATION OF THE ANTI-MYCOTIC ACTION SPECTRUM IN VITRO BY THE SERIES DILUTION TEST.
(§2) Description of the Experiment
(§3) The nutrient substrates used were Sabourauds' milieu d'epreuve for dermatophytes and mould fungi and meat broth-glucose bouillon for blastomyces and biphase fungi. The incubation temperature was 28° C. and the incubation time was 24 to 96 hours.

[2] = test system: Candida albicans; test: Series dilution test in vitro, Candida albicans; assay type: cell-based
Description: as §1, §2, §3

[3] = test system: Penicillium commune; test: Series dilution test in vitro, Penicillium commune; assay type: cell-based; settings: read-out: Minimum inhibitory concentration (MIC)
Description: as §1, §2, §3

[4] = test system: Aspergillus niger; test: Series dilution test in vitro, Aspergillus niger; assay type: cell-based; settings: for MIC: Aspergillus niger, read-out: Minimum inhibitory concentration (MIC)
Description: as §1, §2, §3

[5] = test system: Microsporon felineum; test: Series dilution test in vitro, Microsporon felineum; assay type: cell-based; settings: 28° C., 24 to 96 hours; read-out: Minimum inhibitory concentration (MIC)
Description: as §1, §2, §3

[6] = test system: Candida albicans; test: Candidosis of mice; assay type: in vivo, Mice of Type SPF-CF1; settings: 2 × 100 mg/kg orally, one hour before and seven hours after infection, survivors on 6th day
Description: as §2
Mice of Type SPF-CF1 were intravenously infected with 1-2 × 10^6 logarithmically growing Candida cells suspended in physiological sodium chloride solution.
One hour before and seven hours after infection the animals were treated orally with 2 × 100 mg of the preparations/kg of body weight.
Untreated animals died of the infection 3 to 6 days after infection. The survival rate on the 6th day after infection was about 5% in the case of untreated control animals.

[7] = test system: Trichophyton mentagrophytes; test: Topical application in experimental trichophytosis of guinea pigs; assay type: in vivo; set-up: key to the marks not given beside the values; settings: 1% strength solution applied locally for 11 to 14 days
Description: a. Topical Application in Experimental Trichophytosis of Guinea Pigs (Pathogen: Trichophyton metagrophytes)
as §2
A 1% strength solution of the active compounds in a dimethylsulphoxide/glycerine/water mixture (1:3:6) or in polyethylene glycol 400 was applied locally for 11 to 14 days after the trichophytosis had been produced experimentally.

[8] = test system: Trichophyton mentagrophytes; test: Oral administration on Quinckeanum trichophytosis of white mice; assay type: in vivo; set-up: key to the marks not given beside the values; settings: 100 mg/kg orally twice daily up to the eighth day of the infection
Description: b. Action, on Oral Administration, on Quinckeanum Trichophytosis of White Mice
It was possible to suppress the development of the Quinckeanum infection in mice with doses of 100 mg/kg of body weight given orally twice daily up to the eighth day of the infection.

[9] = n.s. (no serum added), 28° C., 24 to 96 hours
[10] = w.s. (with 30% serum added), 28° C., 24 to 96 hours
[11] = n.s. (no serum added), 28° C., 24 to 96 hours, read-out: Minimum inhibitory concentration (MIC)
[12] = w.s. (with 30% serum added), 28° C., 24 to 96 hours, read-out: Minimum inhibitory concentration (MIC)
[13] = n.s. (no serum added), * = 90% inhibition of growth
[14] = w.s. (with 30% serum added), * = 90% inhibition of growth
[15] = n.s. (no serum added), * = 90% inhibition of growth, read-out: Minimum inhibitory concentration (MIC)

SMILES	MIC [1, 9]	MIC [1, 10]	MIC [2, 11]	MIC [2, 12]	MIC ([3]; 28° C., 24 to 96 hours)	MIC [4, 9]	MIC [4, 10]	MIC [5]	MIC [2, 15]	Action against Candida albicans [6]	also measured
CC(C)(C)C(=O)C(Oc1ccc(Cl)cc1Cl)n1cncn1 (stereo not shown) [Example 1, 1-[(2',4'-dichloro)-phenoxy]-1-[1',2', 4'-triazolyl-(1')]-3,3-dimethyl-butan-2-one]	4 µg/mL (≈ 12.2 µM)	4 µg/mL (≈ 12.2 µM)	40 µg/mL (≈ 122 µM)	40 µg/mL (≈ 122 µM)	> 100 µg/mL	100 µg/mL (≈ 305 µM)	100 µg/mL (≈ 305 µM)	100 µg/mL (≈ 305 µM)	–	+ (50% survivors on the 6th day after infection)	–
O=C(c1ccc(Cl)cc1)C(Oc1ccc(Cl)cc1Cl)n1cncn1 (stereo not shown) [Example 6]	–	–	–	–	> 100 µg/mL	100 µg/mL (≈ 261 µM)	> 100 µg/mL	40 µg/mL (≈ 105 µM)	10 µg/mL (≈ 26.1 µM)	+ (50% survivors on the 6th day after infection)	MIC [1, 13]: 4 µg/mL (≈ 10.5 µM); MIC [1, 14]: 10 µg/mL (≈ 26.1 µM); MIC ([2]; w.s. (with 30% serum added), * = 90% inhibition of growth, read-out: Minimum inhibitory concentration (MIC)): 100 µg/mL (≈ 261 µM)
CC(C)(C)C(=O)C(Oc1ccc(-c2ccccc2)cc1)n1cncn1 (stereo not shown) [Example 12]	< 1 µg/mL	< 1 µg/mL	–	100 µg/mL (≈ 298 µM)	–	–	100 µg/mL (≈ 298 µM)	40 µg/mL (≈ 119 µM)	100 µg/mL (≈ 298 µM)	+ (50% survivors on the 6th day after infection)	MIC ([3]; * = 90% inhibition of growth): 100 µg/mL (≈ 298 µM); MIC [4, 13]: 40 µg/mL (≈ 119 µM); Action against Trichophyton mentagrophytes [7]: ++++; Oral action against Trichophyton mentagrophytes [8]: ++
CC(C)(C)C(=O)C(Oc1ccc(Cl)cc1)n1cncn1 (stereo not shown) [Example 27]	–	–	–	–	–	–	–	–	–	++++ (>80% survivors on the 6th day after infection)	MIC [1]: 4 µg/mL (≈ 13.6 µM); Minimum inhibitory concentration (MIC) [1, 10]: 4 µg/mL (≈ 13.6 µM); MIC ([2]; read-out: Minimum inhibitory concentration (MIC), n.s. (no serum added), 28° C., 24 to 96 hours): 40 µg/mL (≈ 136 µM); MIC ([2]; read-out: Minimum inhibitory concentration (MIC), w.s. (with 30% serum added), 28° C., 24 to 96 hours): 100 µg/mL (≈ 340 µM); MIC [3]: > 100 µg/mL; MIC [4]: 100 µg/mL (≈ 340 µM); Minimum inhibitory concentration (MIC) [4, 10]: 100 µg/mL (≈ 340 µM); Action against Trichophyton mentagrophytes [7]: ++; Oral action against Trichophyton quinckeanum [8]: ++++

Further lines, with some results ahead:

MIC [1, 9]	MIC [1, 10]	MIC [2, 11]	MIC [2, 12]	MIC ([3]; 28° C., 24 to 96 hours)	MIC [4, 9]	MIC [4, 10]	MIC [5]	MIC [2, 15]	SMILES	Action against Candida albicans [6]	also measured
–	–	> 64 µg/mL	–	> 64 µg/mL	> 64 µg/mL	> 64 µg/mL	> 64 µg/mL	–	CC(C)(C)C(=O)C(Oc1ccc(Cl)cc1)(c1ccccc1)n1cncn1 (stereo not shown) [Example 5, 1-[(4'-chlorophenoxy)]-1-[phenyl]-1-[1',2',4'triazolyl-(1')]-3,3-dimethyl-butan-2-one]	–	MIC [1, 13]: 1 µg/mL (≈ 2.7 µM); MIC [1, 14]: 32 µg/mL (≈ 86.5 µM)
8 µg/mL (≈ 28.8 µM)	32 µg/mL (≈ 115 µM)	100 µg/mL (≈ 361 µM)	> 64 µg/mL	> 64 µg/mL	–	–	–	–	CC(C)(C)C(=O)C(Oc1ccc(F)cc1)n1cncn1 (stereo not shown) [Example 9]	++ (60-80% survivors on the 6th day after infection)	–
32 µg/mL (≈ 123 µM)	32 µg/mL (≈ 123 µM)	> 64 µg/mL	–	> 64 µg/mL	–	–	–	–	CC(C)(C)C(=O)C(Oc1ccccc1)n1cncn1 (stereo not shown) [Example 15]	–	–
32 µg/mL (≈ 111 µM)	> 64 µg/mL	–	> 64 µg/mL	> 64 µg/mL	–	–	–	64 µg/mL (≈ 223 µM)	Cc1ccc(OC(C(=O)C(C)(C)C)n2cncn2)cc1C (stereo not shown) [Example 17]	–	–
32 µg/mL (≈ 88.2 µM)	> 64 µg/mL	> 64 µg/mL	–	> 64 µg/mL	–	–	–	–	CC(C)(C)C(=O)C(Oc1cc(Cl)c(Cl)cc1Cl)n1cncn1 (stereo not shown) [Example 20]	–	–
8 µg/mL (≈ 19.8 µM)	64 µg/mL (≈ 158 µM)	> 64 µg/mL	> 64 µg/mL	> 64 µg/mL	–	–	–	–	CC(C)(C)C(=O)C(Oc1ccc(Cl)cc1Cl)(c1ccccc1)n1cncn1 (stereo not shown) [Example 21]	–	–
